Assay results taken from ChEMBL document CHEMBL1201862, “PubChem BioAssay data set” (2004).
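Each compound was tested at five concentrations against cells in 96-well plates for 48 hours. GI50 is the concentration that inhibits growth by half.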 Active and inactive are the calls of the source. Rule as the data show it: active = GI50 up to about 1.1 µM and inactive = higher.

Legend:
Experiment in all cases: NCI anticancer screen, dose series, 48 h
IGROV-1 = tested on: IGROV-1
SK-OV-3 = tested on: SK-OV-3
HCC 2998 = tested on: HCC 2998
RPMI-8226 = tested on: RPMI-8226
A498 = tested on: A498
DU-145 = tested on: DU-145
NCI/ADR-RES = tested on: NCI/ADR-RES
HCT-116 = tested on: HCT-116
NCI-H522 = tested on: NCI-H522
OVCAR-5 = tested on: OVCAR-5
HOP-92 = tested on: HOP-92
SNB-75 = tested on: SNB-75
UO-31 = tested on: UO-31
OVCAR-4 = tested on: OVCAR-4
NCI-H23 = tested on: NCI-H23
SF-268 = tested on: SF-268
LOX IMVI = tested on: LOX IMVI
OVCAR-3 = tested on: OVCAR-3
COLO 205 = tested on: COLO 205
SR = tested on: SR
PC-3 = tested on: PC-3
Malme-3M = tested on: Malme-3M
MCF7 = tested on: MCF7
SF-295 = tested on: SF-295
EKVX = tested on: EKVX
CCRF-CEM = tested on: CCRF-CEM
BT-549 = tested on: BT-549
MDA-MB-231 = tested on: MDA-MB-231
HOP-62 = tested on: HOP-62
SK-MEL-5 = tested on: SK-MEL-5
M14 = tested on: M14
MOLT-4 = tested on: MOLT-4
SN12C = tested on: SN12C
HL-60 = tested on: HL-60
A549 = tested on: A549
NCI-H460 = tested on: NCI-H460
K562 = tested on: K562
SF-539 = tested on: SF-539
ACHN = tested on: ACHN
SW-620 = tested on: SW-620
SNB-19 = tested on: SNB-19
OVCAR-8 = tested on: OVCAR-8
Hs-578T = tested on: Hs-578T
HCT-15 = tested on: HCT-15
MDA-N = tested on: MDA-N
UACC-62 = tested on: UACC-62
HT-29 = tested on: HT-29
TK-10 = tested on: TK-10
U-251 = tested on: U-251
CAKI-1 = tested on: CAKI-1
786-0 = tested on: 786-0
MDA-MB-435 = tested on: MDA-MB-435
NCI-H226 = tested on: NCI-H226
SK-MEL-2 = tested on: SK-MEL-2
T47D = tested on: T47D
KM12 = tested on: KM12
SK-MEL-28 = tested on: SK-MEL-28
RXF 393 = tested on: RXF 393
UACC-257 = tested on: UACC-257

CCC1(O)C(=O)OCc2c1cc1n(c2=O)Cc2cc3cc(N)ccc3nc2-1 (stereo not drawn)
GI50 (IGROV-1): 109 nM (active) | GI50 (SK-OV-3): < 10 nM (active) | GI50 (HCC 2998): 34.5 nM (active) | GI50 (RPMI-8226): 34.1 nM (active) | GI50 (A498): 125 nM (active) | GI50 (DU-145): < 10 nM (active) | GI50 (NCI/ADR-RES): < 10 nM (active) | GI50 (HCT-116): < 10 nM (active) | GI50 (NCI-H522): < 10 nM (active) | GI50 (OVCAR-5): < 27.1 nM (active) | GI50 (HOP-92): 53.5 nM (active) | GI50 (SNB-75): < 10 nM (active) | GI50 (UO-31): < 10 nM (active) | GI50 (OVCAR-4): 257 nM (active) | GI50 (NCI-H23): < 10 nM (active) | GI50 (SF-268): < 10 nM (active) | GI50 (LOX IMVI): < 10 nM (active) | GI50 (OVCAR-3): 46.6 nM (active) | GI50 (COLO 205): 366 nM (active) | GI50 (SR): < 10 nM (active) | GI50 (PC-3): 70.2 nM (active) | GI50 (Malme-3M): 29.9 nM (active) | GI50 (MCF7): < 10 nM (active) | GI50 (SF-295): < 10 nM (active) | GI50 (EKVX): 855 nM (active) | GI50 (CCRF-CEM): < 10 nM (active) | GI50 (BT-549): < 10 nM (active) | GI50 (MDA-MB-231): 516 nM (active) | GI50 (HOP-62): < 10 nM (active) | GI50 (SK-MEL-5): < 13.6 nM (active) | GI50 (M14): < 10 nM (active) | GI50 (MOLT-4): < 10 nM (active) | GI50 (SN12C): < 10 nM (active) | GI50 (HL-60): < 10 nM (active) | GI50 (A549): 10.3 nM (active) | GI50 (NCI-H460): < 10 nM (active) | GI50 (K562): < 12.7 nM (active) | GI50 (SF-539): < 10 nM (active) | GI50 (ACHN): < 10 nM (active) | GI50 (SW-620): 21.9 nM (active) | GI50 (SNB-19): < 10 nM (active) | GI50 (OVCAR-8): < 12.8 nM (active) | GI50 (Hs-578T): 1420 nM (inactive) | GI50 (HCT-15): 72.1 nM | GI50 (MDA-N): 23.2 nM (active) | GI50 (UACC-62): < 10 nM (active) | GI50 (HT-29): 31.1 nM (active) | GI50 (TK-10): 1900 nM (inactive) | GI50 (U-251): < 10 nM (active) | GI50 (CAKI-1): < 10 nM (active) | GI50 (786-0): < 10 nM (active) | GI50 (MDA-MB-435): 24.1 nM (active) | GI50 (NCI-H226): < 33.8 nM (active) | GI50 (SK-MEL-2): 96.4 nM (active) | GI50 (T47D): < 10 nM (active) | GI50 (KM12): 59.3 nM (active)

CSc1ccc2c(c1)N(CCCN(C)C)c1ccccc1S2
GI50 (IGROV-1): 13200 nM (inactive) | GI50 (SK-OV-3): 15100 nM (inactive) | GI50 (RPMI-8226): 12200 nM (inactive) | GI50 (A498): 11200 nM (inactive) | GI50 (DU-145): 15600 nM (inactive) | GI50 (NCI/ADR-RES): 12100 nM (inactive) | GI50 (SK-MEL-28): 2290 nM (inactive) | GI50 (HCT-116): 12700 nM (inactive) | GI50 (NCI-H522): 12800 nM (inactive) | GI50 (OVCAR-5): 15300 nM (inactive) | GI50 (HOP-92): 11700 nM (inactive) | GI50 (SNB-75): 6970 nM (inactive) | GI50 (OVCAR-4): 11500 nM (inactive) | GI50 (NCI-H23): 16400 nM (inactive) | GI50 (SF-268): 13600 nM (inactive) | GI50 (LOX IMVI): 11600 nM (inactive) | GI50 (OVCAR-3): 12800 nM (inactive) | GI50 (COLO 205): 12700 nM (inactive) | GI50 (SR): 6190 nM (inactive) | GI50 (PC-3): 11100 nM (inactive) | GI50 (Malme-3M): 9160 nM (inactive) | GI50 (MCF7): 11900 nM (inactive) | GI50 (SF-295): 12800 nM (inactive) | GI50 (EKVX): 18600 nM (inactive) | GI50 (RXF 393): 7550 nM (inactive) | GI50 (CCRF-CEM): 5890 nM (inactive) | GI50 (BT-549): 15400 nM (inactive) | GI50 (MDA-MB-231): 12700 nM (inactive) | GI50 (HOP-62): 14000 nM (inactive) | GI50 (SK-MEL-5): 11400 nM (inactive) | GI50 (M14): 5190 nM (inactive) | GI50 (MOLT-4): 5810 nM (inactive) | GI50 (SN12C): 13100 nM (inactive) | GI50 (HL-60): 12000 nM (inactive) | GI50 (A549): 15400 nM (inactive) | GI50 (NCI-H460): 10800 nM (inactive) | GI50 (K562): 4280 nM (inactive) | GI50 (SF-539): 17300 nM (inactive) | GI50 (ACHN): 11700 nM (inactive) | GI50 (SW-620): 15200 nM (inactive) | GI50 (SNB-19): 16200 nM (inactive) | GI50 (OVCAR-8): 17200 nM (inactive) | GI50 (Hs-578T): 11000 nM (inactive) | GI50 (HCT-15): 15000 nM | GI50 (MDA-N): 10700 nM (inactive) | GI50 (UACC-62): 10400 nM (inactive) | GI50 (HT-29): 6780 nM (inactive) | GI50 (TK-10): 14900 nM (inactive) | GI50 (U-251): 13500 nM (inactive) | GI50 (CAKI-1): 8670 nM (inactive) | GI50 (UACC-257): 7160 nM (inactive) | GI50 (786-0): 13700 nM (inactive) | GI50 (MDA-MB-435): 4670 nM (inactive) | GI50 (NCI-H226): 19800 nM (inactive) | GI50 (SK-MEL-2): 15600 nM (inactive) | GI50 (T47D): 10400 nM (inactive) | GI50 (KM12): 11800 nM (inactive)
